Laboratory results published in the supplement of paper PMC13380429.

Assays:
Details in all cases: 72 h
HepG2 [1] = test: relative viability EC50 (midpoint between 100% and the lowest measured viability); higher = less toxic
U2OS [2] = test: as above
Vero E6 [3] = test: as above
Caco-2 [4] = test: as above
Calu-3 [5] = test: as above
HepG2 [6] = test: cell viability relative to DMSO; higher = less toxic
U2OS [7] = test: as above
Vero E6 [8] = test: as above
Caco-2 [9] = test: as above
Calu-3 [10] = test: as above
HepG2 [11] = test: drug sensitivity score (DSS) for viability; higher = more toxic; extreme values may be limits of the assay
U2OS [12] = test: as above
Vero E6 [13] = test: as above
Caco-2 [14] = test: as above
Calu-3 [15] = test: as above

Structure (SMILES)	relative viability EC50 (HepG2 [1]) [µM]	relative viability EC50 (U2OS [2]) [µM]	relative viability EC50 (Vero E6 [3]) [µM]	relative viability EC50 (Caco-2 [4]) [µM]	relative viability EC50 (Calu-3 [5]) [µM]	cell viability (HepG2 [6]; 1 nM) [%]	cell viability (HepG2 [6]; 10 nM) [%]	cell viability (HepG2 [6]; 100 nM) [%]	cell viability (HepG2 [6]; 1000 nM) [%]	cell viability (HepG2 [6]; 10000 nM) [%]	cell viability (U2OS [7]; 1 nM) [%]	cell viability (U2OS [7]; 10 nM) [%]	cell viability (U2OS [7]; 100 nM) [%]	cell viability (U2OS [7]; 1000 nM) [%]	cell viability (U2OS [7]; 10000 nM) [%]	cell viability (Vero E6 [8]; 1 nM) [%]	cell viability (Vero E6 [8]; 10 nM) [%]	cell viability (Vero E6 [8]; 100 nM) [%]	cell viability (Vero E6 [8]; 1000 nM) [%]	cell viability (Vero E6 [8]; 10000 nM) [%]	cell viability (Caco-2 [9]; 1 nM) [%]	cell viability (Caco-2 [9]; 10 nM) [%]	cell viability (Caco-2 [9]; 100 nM) [%]	cell viability (Caco-2 [9]; 1000 nM) [%]	cell viability (Caco-2 [9]; 10000 nM) [%]	cell viability (Calu-3 [10]; 1 nM) [%]	cell viability (Calu-3 [10]; 10 nM) [%]	cell viability (Calu-3 [10]; 100 nM) [%]	cell viability (Calu-3 [10]; 1000 nM) [%]	cell viability (Calu-3 [10]; 10000 nM) [%]	drug sensitivity score (HepG2 [11])	drug sensitivity score (U2OS [12])	drug sensitivity score (Vero E6 [13])	drug sensitivity score (Caco-2 [14])	drug sensitivity score (Calu-3 [15])
CCC(=O)O[C@@](Cc1ccccc1)(c1ccccc1)[C@@H](C)CN(C)C [levopropoxyphene]	> 10	> 10	> 10	> 10	> 10	94.3	97.1	96.4	94.7	89.4	104	101	101	98.8	100	100	100	96	101	95.4	99.3	103	98.3	100	102	104	90.1	94.7	102	104	0	0	0	0	0
O=C(Cn1c(=O)sc2ccc(Cl)cc21)N1CCN(CCO)CC1 [tiaramide]	> 10	> 10	> 10	> 10	> 10	94.9	109	108	88.8	89.3	101	101	98.7	100	98.7	107	95.2	94.3	101	93.4	112	91.4	96.7	96.3	101	92.2	101	90.6	92.4	105	0.2	0	0	0	0
COc1c(-c2ccc3cc(NS(C)(=O)=O)ccc3c2)cc(-n2ccc(=O)[nH]c2=O)cc1C(C)(C)C [dasabuvir]	> 10	> 10	> 10	> 10	> 10	90.4	102	90.4	102	109	98.5	96.9	102	96.5	96.3	91.5	98.3	92.8	97	106	96.2	94.5	87.8	98.9	96.3	94	106	93.7	97.9	104	0	0	0	0	0
CC[C@@H](C)c1ccc(NC(=O)Cn2cnc3c2c(=O)n(C)c(=O)n3C)cc1 (racemic)	> 10	> 10	> 10	> 10	> 10	95.9	100	96.6	100	93.4	98.6	97.1	98.3	96.9	98.6	96	98.3	92.6	94	106	98.5	90.1	89.8	97.3	92.5	99.4	100	98.6	99	95.6	0	0	0	0	0
Clc1cccc2c1CN(C1=NCCN1)C2	> 10	> 10	> 10	> 10	> 10	96.7	101	91.8	92.5	97.3	101	101	97.3	102	92.1	98.9	98.7	104	98.5	99.2	100	100	95.6	98.8	97.3	97.1	90.1	109	101	98.3	0	0	0	0	0
c1ccc(C(O[C@@H]2CCCN(CCc3ccc4c(c3)OCO4)C2)c2ccccc2)cc1 [zamifenacin]	> 10	> 10	> 10	> 10	> 10	92.6	107	92.7	108	92.1	104	99.6	98.8	98.3	96	96.9	102	96.7	98.3	94.9	94.8	91.7	98.6	98.3	92.5	104	99.2	97	102	92.2	0	0	0	0	0
CC(=O)Oc1cc2c(s1)CCN(C(C(=O)C1CC1)c1ccccc1F)C2 (stereo not given) [prasugrel]	> 10	> 10	> 10	> 10	> 10	105	95	106	103	93.3	104	98	102	97.9	98.8	100	93.6	96.2	96.2	93.2	102	101	93	105	94.1	101	103	102	97.3	106	0	0	0	0	0
Cc1cnc(C(=O)O)c[n+]1[O-] [acipimox]	> 10	> 10	> 10	> 10	> 10	87.2	101	96.6	89.5	92.3	98.6	101	101	98.5	97	98.6	103	102	95.7	101	94.3	100	95.4	93.4	87.2	107	102	108	94.7	97.1	0	0	0	0	0
COC(=O)C1=C(C)N(C)C(C)=C(C(=O)OC)C1c1ccc(C(F)(F)F)cc1 [BAY-W-9798]	> 10	> 10	> 10	> 10	> 10	96.7	93.3	106	96.3	101	96.9	102	96.4	102	103	93.7	92.5	94.2	96.3	107	91.8	99.4	98.9	97.1	95.4	95.1	103	93.4	98.1	100	0	0	0	0	0
CCC(=N\O)/C(C)=C/c1ccc(F)cc1	> 10	> 10	> 10	> 10	> 10	91.9	107	102	102	91	98.4	100	98.4	103	95	99.1	99.2	102	98.5	98.8	93.9	91.4	89.5	96.4	97.5	104	98.5	95.9	107	95	0	0	0	0	0
CN(C)C(=O)CCSC(SCCC(=O)O)c1cccc(/C=C/c2ccc3ccc(Cl)cc3n2)c1 (stereo not given) [MK-571]	> 10	> 10	> 10	> 10	> 10	102	106	97.7	108	95.7	102	101	97.2	94.3	101	98.4	93.5	99.6	99.1	91.5	97.8	92.2	95	92.6	95.2	101	97.5	101	101	104	0	0	0	0	0
C[C@@H]1CC[C@@]2(OC1)O[C@H]1C[C@H]3[C@@H]4CC=C5C[C@@H](O)CC[C@]5(C)[C@H]4CC[C@]3(C)[C@H]1[C@@H]2C [diosgenin]	> 10	> 10	> 10	> 10	> 10	101	105	98.8	102	106	95.9	99.1	101	99.9	98.1	102	107	102	103	98.1	105	97.9	101	94.5	101	96.8	91.3	84.2	95.4	95.4	0	0	0	0	0
CC1(C)CC(=O)C(C2C3=C(CC(C)(C)CC3=O)Oc3ccccc32)C(=O)C1 (stereo not given)	> 10	> 10	> 10	> 10	> 10	92.1	103	97.5	96.8	102	96.7	101	95	98.2	101	102	98	103	102	100	99.2	93.7	96.5	95.8	99.2	93	98.1	98	101	109	0	0	0	0	0
C=Cc1c(C)c2cc3nc(c(CC(=O)O)c4[n-]c(cc5nc(cc1[n-]2)C(C)=C5CC)c(C)c4C(=O)O)[C@@H](CCC(=O)O)[C@@H]3C.[Cu+2] [chlorophyllin-copper]	> 10	> 10	> 10	> 10	> 10	89.6	104	82.3	105	88.8	94.9	97.2	98.7	91.9	88.6	103	97.3	95.2	102	85.9	88.2	84	98.7	95.8	89.4	88.2	85.4	104	104	75.4	0	0	0.1	0	0.7
